Structures are written as SMILES. Read-outs that look alike come from different tables or passages of the source.

The results in this text go back to patent US6420393B1, “Cyclopentabenzofuran derivatives and their use” (Bayer Aktiengesellschaft, priority 1998, dated 2002).

Assay [1] concerns NF-κB-mediated TNFα synthesis in human monocytes. As to the kind of experiment: cells. The format is cell-based. The conditions noted are these: Monocyte, LPS 125 ng/ml, 18 hours, TNFα ELISA, read-out: IC50 (inhibition of NF-κB-mediated TNFα synthesis).
The test system of assay [2] is adhesion of human neutrophils to TNF-α-stimulated HUVEC cells. As to the kind of experiment: ELAM-dependent adhesion of human neutrophils to TNF-α-stimulated HUVEC. The format is cell-based. How it is done: (§1) The influence of compound I-3-R on the expression of ELAM-1 was checked in two different test batches. In one functional batch, the adhesion of human neutrophils to TNF-α-stimulated HUVEC cells was measured. The expression of ELAM-1 on the surface of the HUVECs was determined using a fluorescence-labeled ELAM-1-specific monoclonal antibody by means of FACS (cell sorting) analysis.
Experimental Procedure: ELAM-dependent Neutrophil Adhesion to Endothial Cells
The neutrophils were isolated from human blood (100 ml). To this end, 3.5 ml of Polyprep was introduced into a centrifuge bucket and carefully coated with 5 ml of blood. After centrifuging at 2100 min^−1 for 30 minutes, the neutrophil band in the center of the centrifuge bucket was aspirated. After 1:2 dilutions in Clonetics endothelial cell basal medium (EBM), the neutrophils were again centrifuged at 1000 min^−1 for 20 minutes and then made up to a cell concentration of 10^6 cells/ml.
The umbilical cord endothelial cells were grown to confluence in EBM+10% FCS in 96 well microtiter plates. At the start of the experiment, the medium was replaced by EBM without FCS and the experimental substances then employed. After 20 minutes, the HUVECs were stimulated using 10 nM TNF-α. […] The fluorescence of the adherent neutrophils was then measured in a fluorescence photometer.

Assay [3] deals with ELAM-1 expression in HUVECs. Kind of assay: TNF-induced expression of ELAM-1 on HUVEC surface (FACS, anti-ELAM-1 antibody). Type of assay: cell-based, human. How it is done: Inhibition of the NF-κB-mediated Gene Expression of the Adhesion Protein ELAM-1 to Human Umbilical Cord Endothelial Cells (HUVEC)
as §1
Experimental Procedure Quantitative Measurement of the TNF-induced Expression of ELAM-1 in HUVECs
Umbilical cord endothelial cells (HUVEC) were cultured as described above and incubated for 4 hours in the presence or absence of test substances in the presence or absence of 10 ng/ml of TNF. […] After centrifuging and washing again, the cells were taken up in 1 ml of PBS plus 1% BSA and measured at 488 nm in a flow cytometer (Becton and Dickinson). The intensity of the fluorescence as a function of bound anti-ELAM-1 antibody per cell is measured by this process. 5000 cells were measured for each value.

In assay [4] the test system is interleukin-2 promoter (luciferase) in SS-1 cell line. As to the kind of experiment: Inhibition of interleukin-2 synthesis: interleukin-2 promoter-luciferase reporter cell line (SS-1), PMA/ionomycin induced. The format is cell-based. The note with it: IL-2 promoter reporter cell line, PMA 5 ng/ml + ionomycin, 24 hours; read-out: IC50 (inhibition of induction of luciferase activity to 50%). From the text:
Inhibition of Interleukin-2 Synthesis
For the testing of the inhibitory action of cyclopentabenzene derivatives on interleukin-2 synthesis, a receptor gene cell line was used which contains the interleukin-2 promoter coupled to the luciferase gene. The promoter contains the DNA sequence from −480 to +4. The vector employed is pGL3; the starting cell line in which the total construct has been stably transfected is SS-1. The culture medium for this cell line was RPMI 1640 (Gibco, Rockille). It additionally contained: 100 μg/ml of streptomycin, 100 U/ml of penicillin, 2 mM L-glutamine, 10% heat-inactivated FBS and 800 μg/ml of G418 sulfate.
The reporter gene test cell line was inoculated into 96-well plates to 1×10^6 cells per well in Phenol Red-free RPMI with the additives and incubated at 37° C. in an atmosphere of 5% CO2, 95% air with phorbol 12-myristate 13-acetate (PMA; 5 ng/ml) and ionomycin ([…]; 0.4 μg/ml) for 24 hours. The test substances were added simultaneously with PMA.
For the generation of the luminescence, LucLite™ solution (Packard, Meriden, Conn.) was added to a concentration of 100 μl/well and the luminescence was measured in a luminometer (Luminoskan, Labsystems) immediately after addition.

Assay [5] relates to human tissue factor promoter (luciferase) in RAW-A3 cells (RAW 264.7 transfectant). As to the kind of experiment: Inhibition of NF-κB-mediated expression of the human tissue factor gene: promoter-luciferase reporter in RAW-A3 monocyte cells. The format is cell-based. The note with it: read-out: IC50 (tissue factor promoter-driven luciferase activity). How it is done: Inhibition of the NF-κB-mediated Gene Expression of the Human Tissue Factor Gene in Monocytes
Therefore, for the further detection of the inhibition of the NFκB-mediated gene expression by the inhibitors according to the invention, the following biological test was carried out:
The promoter fragment of the human tissue factor gene which contains the NF-κB binding sequence was cloned with oligonucleotide primers of the sequence 5′-TCCCTCGAGATCTCCCAGAGGCAAACTGCCAGAT-3′ (5′ primer of position −925) and 5′-TCCTCGAGCCATGGCTACCAGTTGGGCGGCGAGATC-3′ (3′ primer containing the ATG start codon of the coding sequence of the tissue factor gene) by means of the polymerase chain reaction (PCR) and fused by means of an NcoI/XhoI cloning with the luciferase start codon in the plasmid pGL3-basic vector (Promega Corp. 2800 Woods Hollow Road, Madison, Wis. 53711-5399 USA). […]
After a further 6 hours, the culture supernatant is aspirated and the cells are processed for the measurement of the luciferase activity according to the procedure of the “Luciferase Assay System” (Technical Bulletin of Promega, 2800 Woods Hollow Road, Madison, Wis. 53711-5399 USA. Products E4030, E1483, E1501). The cell lyzate is incubated with the luciferase assay substrate and measured in a luminometer to measure the emitted light. […]

The subject of assay [6] is NF-κB-mediated TNFα synthesis in human monocytes. As to the kind of experiment: cells. The format is cell-based. The conditions noted are these: Monocyte, 100 nM PMA, read-out: IC50 value after PMA stimulus (TNFα synthesis).

For the compound `COc1ccc([C@@]23Oc4cc(OC)cc(OC)c4[C@]2(O)[C@H](O)C[C@H]3c2ccccc2)cc1` (racemic) [Example I-3-R], the IC50 in assay [1] was 100 nM; in assay [4] it was 5 to 10 nM. Besides, in assay [2] (10 nM TNF-α, 4 hours, inhibited to 50%), the “Inhibition of adhesion of neutrophils to TNF-α-stimulated HUVECs” value was found to be 50%. Besides, in assay [2] (neutrophil adhesion to TNF-α-stimulated HUVECs), the “Concentration at which maximum inhibition of cell adhesion was determined” value is 50 nM. For the same compound, the “Completeness of inhibition of ELAM-1 expression” value in assay [3] (HUVEC, 10 ng/ml TNF, 4 hours, FACS, all concentrations investigated) is recorded as “completely inhibited at none of the concentrations investigated”. Further, in assay [3] (TNF-α-stimulated HUVECs, inhibited to 50%), the “Inhibition of expression of ELAM-1 on the cell surface (maximum inhibition)” value stood at 50%.

With `COC(=O)CN[C@@H]1C[C@@H](c2ccccc2)[C@]2(c3ccc(OC)cc3)Oc3cc(OC)cc(OC)c3[C@]12O` [Example I-5, methyl (1α,3β,3aβ,8bβ)-N-(3,3a-dihydro-6,8-dimethoxy-3a-(4-methoxyphenyl)-3-phenyl-cyclopenta[b]benzofuran-8b(2H)-ol-1-yl)-2-aminoacetate], the IC50 is 500 nM in assay [1]; 2000 nM in assay [5] (RAW264.7, 6 h); 90 nM in assay [6].

`COc1ccc([C@@]23Oc4cc(OC)cc(OC)c4[C@]2(O)[C@@H](O)C[C@H]3c2ccccc2)cc1` (racemic) [Example I-1, (1α,3α,3aα,8bα)-3,3a-dihydro-6,8-dimethoxy-3a-(4-methoxyphenyl)-3-phenyl-1H-cyclopenta[b]benzofuran-1,8b(2H)-diol]: the half-maximal inhibitory concentration (IC50) in assay [1] stood at 500 nM; in assay [5] (RAW264.7, RAW-A3 cells, induction with 15% serum, 6 hours) it was 20000 nM; in assay [6], 100 nM.
